Data reported in PMC4161390, “Design and Synthesis of a Cell-Permeable, Drug-Like Small Molecule Inhibitor Targeting the Polo-Box Domain of Polo-Like Kinase 1” (PLoS ONE, 2014).

Target: T1, Polo-like kinase 1 polo-box domain (Plk1-PBD) (Homo sapiens, UniProt P53350)
T1 construct: HA-EGFP-Plk1 in mitotic 293A lysates
Experiment: ELISA-based Plk1 PBD competition assay (moderate activity)
Type: biochemical

T1 sequence (P53350 whole entry, the tested form may be a part): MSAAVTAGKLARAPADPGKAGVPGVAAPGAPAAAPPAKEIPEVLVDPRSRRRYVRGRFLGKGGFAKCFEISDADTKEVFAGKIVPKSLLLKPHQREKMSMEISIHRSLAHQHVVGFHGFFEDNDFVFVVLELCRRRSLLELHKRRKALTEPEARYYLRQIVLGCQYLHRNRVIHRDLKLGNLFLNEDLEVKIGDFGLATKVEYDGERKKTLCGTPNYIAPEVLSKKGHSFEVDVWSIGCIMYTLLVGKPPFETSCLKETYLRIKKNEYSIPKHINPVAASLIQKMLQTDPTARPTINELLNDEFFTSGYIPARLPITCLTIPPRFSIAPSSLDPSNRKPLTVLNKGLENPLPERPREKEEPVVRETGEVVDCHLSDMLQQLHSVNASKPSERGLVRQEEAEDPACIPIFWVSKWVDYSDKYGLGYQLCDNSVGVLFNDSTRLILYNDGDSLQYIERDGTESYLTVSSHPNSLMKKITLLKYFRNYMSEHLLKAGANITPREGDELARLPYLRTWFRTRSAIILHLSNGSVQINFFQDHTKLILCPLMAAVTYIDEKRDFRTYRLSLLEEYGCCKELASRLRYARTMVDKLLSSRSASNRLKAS

## O=c1c(O)cccc2cc(O)c(O)c(O)c12 [PPG, purpurogallin]
  ELISA-based Plk1 PBD competition assay (moderate activity): PPG PLS5 Bg-5 Bg-6|moderate weak weak weak|
